Laboratory results published in patent US5684026A, “Aminocyclopentane derivative” (priority 1994, dated 1997).

Experiments:
[1] = molecular target: β-Glucosidase (Almonds, EC 3.2.1.21); experiment: β-Glucosidase enzyme inhibition assay (p-nitrophenyl β-D-glucopyranoside); format: biochemical
Protocol: (§1) By using a 96-well microplate, the absorbance (at 405 nm) of liberated p- or o-nitrophenol was measured with a microplate reader (MPR-4Ai, manufactured by Tosoh Corporation).
Incubation was carried out at 37° C. by using a natural incubator (Compact NIB-10, manufactured by Iwaki Glass Co., Ltd.).
(§2) The enzymes employed herein [α-glucosidase (Baker's yeast), β-glucosidase (Almonds), α-galactosidase (E. coli), β-galactosidase (E. coli) and β-galactosidase (Bovine Liver)] were all purchased from Sigma.
(§3) The substrates (p- or o-nitrophenylglycoside) of these enzymes were all purchased from Sigma.
2) β-Glucosidase (Almonds, EC 3.2.1.21) [described in A. Kobayashi, Agr. Biol. Chem., 26, 203-207 (1962)]
Into each well were introduced an aqueous solution of a sample (1 μl), a 0.33 mM solution of p-nitrophenyl β-D-glucopyranoside in a buffer (98 μl) and a (0.4 mg/ml) enzyme solution in the buffer (1 μl) to give a total volume of 100 μl. After incubating at 37° C. for 45 minutes, the reaction was ceased by adding a 1M aqueous solution of sodium carbonate (100 μl). Then the absorbance (A405) of p-nitrophenol liberated by this enzyme reaction was measured. To give the blank absorbance (Ablank), the sample (1 μl) and the substrate (99 μl) were incubated in the same manner and an aqueous solution of sodium carbonate (100 μl) was added followed by the measurement of the absorbance. […] As the buffer, a 0.1M acetate buffer solution (pH 5.0, prepared from NaOAc and AcOH) was employed. The IC50 was determined in the same manner as employed in the case of α-glucosidase.

[2] = tested on: α-Galactosidase (E. Coli, EC. 3.2.1.22); experiment: α-Galactosidase enzyme inhibition assay (p-nitrophenyl α-D-galactopyranoside); format: biochemical; conditions: pH 6.5, room temperature, 15 minutes
Protocol: as §1, §2, §3
3) α-Galactosidase (E. Coli, EC. 3.2.1.22) [described in H. Suzuki, S-C. Li and Y-T. Li, J. Biol. Chem., 245, 781-786 (1970)]
Into each well were introduced an aqueous solution of a sample (1 μl), a buffer (74 μl), a 9.9 mM solution of p-nitrophenyl α-D-galactopyranoside in a buffer (20 μl) and a (50 μg/ml) enzyme solution in the buffer (5 μl) to give a total volume of 100 μl. After incubating the resulting mixture at room temperature (20°-30° C.) for 15 minutes, the reaction was ceased by adding a 0.2M borate buffer solution (pH 9.8, prepared from NaOH and H3 BO3, 100 μl). Then the absorbance (A405) of p-nitrophenol liberated by this enzyme reaction was measured. To give the blank absorbance (Ablank), the sample (1 μl), the substrate (20 μl) and the buffer solution (79 μl) were incubated in the same manner and the 0.2M borate buffer solution (100 μl) was added followed by the measurement of the absorbance. To give the control absorbance ([…]), on the other hand, water (1 μl), the substrate (20 μl), the buffer solution (74 μl) and the enzyme solution (5 μl) were incubated in the same manner and the borate buffer solution (100 μl) was added followed by the measurement of the absorbance. A 0.1M phosphate buffer solution (pH 6.5, prepared from KH2 PO4 and K2 HPO4) was employed as the buffer for the enzyme reaction. The IC50 was determined in the same manner as employed in the case of α-glucosidase.

[3] = molecular target: T1, β-Galactosidase (E. Coli, EC. 3.2.1.23) (Escherichia coli, UniProt P00722); experiment: β-Galactosidase (E. coli) enzyme inhibition assay (o-nitrophenyl β-D-galactopyranoside); format: biochemical; conditions: pH 7.3, room temperature, 30 minutes; read-out: IC50 (M) β-Galactosidase (E. coli)
T1 construct: purchased Sigma; host or cells: E. coli
T1 sequence (P00722 2-1024 limits assumed): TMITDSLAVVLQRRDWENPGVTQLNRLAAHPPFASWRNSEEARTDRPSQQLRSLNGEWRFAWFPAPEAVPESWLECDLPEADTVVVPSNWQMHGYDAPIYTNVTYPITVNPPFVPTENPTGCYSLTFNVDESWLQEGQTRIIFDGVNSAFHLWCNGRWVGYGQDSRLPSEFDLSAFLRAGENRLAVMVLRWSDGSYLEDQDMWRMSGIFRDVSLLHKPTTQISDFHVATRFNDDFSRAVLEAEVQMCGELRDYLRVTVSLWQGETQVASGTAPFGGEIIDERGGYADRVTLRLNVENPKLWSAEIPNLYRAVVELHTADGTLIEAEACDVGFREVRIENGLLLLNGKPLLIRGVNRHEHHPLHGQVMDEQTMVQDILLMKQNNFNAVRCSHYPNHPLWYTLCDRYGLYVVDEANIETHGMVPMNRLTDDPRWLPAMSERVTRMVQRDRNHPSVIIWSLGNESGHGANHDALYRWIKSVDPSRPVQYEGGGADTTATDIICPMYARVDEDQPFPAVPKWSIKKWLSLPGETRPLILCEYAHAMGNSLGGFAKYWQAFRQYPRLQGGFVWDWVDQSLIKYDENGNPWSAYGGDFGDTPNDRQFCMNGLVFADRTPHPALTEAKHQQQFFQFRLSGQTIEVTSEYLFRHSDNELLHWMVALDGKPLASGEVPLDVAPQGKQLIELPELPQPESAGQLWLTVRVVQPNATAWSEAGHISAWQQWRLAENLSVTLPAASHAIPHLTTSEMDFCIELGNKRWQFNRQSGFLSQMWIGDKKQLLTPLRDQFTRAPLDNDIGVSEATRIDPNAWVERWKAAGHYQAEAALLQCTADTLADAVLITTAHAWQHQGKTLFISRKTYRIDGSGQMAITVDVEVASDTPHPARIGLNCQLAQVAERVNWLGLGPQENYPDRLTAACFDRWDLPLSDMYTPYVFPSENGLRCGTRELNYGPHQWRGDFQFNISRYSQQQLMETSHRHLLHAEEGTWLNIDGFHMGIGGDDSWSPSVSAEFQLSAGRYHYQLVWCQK
Protocol: as §1, §2, §3
4) β-Galactosidase (E. Coli, EC. 3.2.1.23) [described in G. R. Craven, E. Steers, Jr. and C. B. Anfinsen, J. Biol. Chem., 240, 2468-2477 (1965)]
Into each well were introduced an aqueous solution of a sample (2 μl), a buffer (153 μl), a 20 mM solution of o-nitrophenyl β-D-galactopyranoside in a buffer (25 μl), a 100 mM 2-mercaptoethanol (10 μl) and a (10 μg/ml) enzyme solution in the buffer (10 μl) to give a total volume of 200 μl. After incubating at room temperature (20°-30° C.) for 30 minutes, the absorbance (A405) of o-nitrophenol liberated by this enzyme reaction was measured. To give the blank absorbance (Ablank), the sample (2 μl), the substrate (25 μl), the buffer solution (163 μl) and 2-mercaptoethanol (10 μl) were incubated in the same manner followed by the measurement of the absorbance. To give the control absorbance (Acontrol), on the other hand, water (2 μl), the substrate (25 μl), the buffer solution (153 μl), 2-mercaptoethanol (10 μl) and the enzyme solution (10 μl) were incubated in the same manner followed by the measurement of the absorbance. A 50 mM phosphate buffer solution (pH 7.3, prepared from KH2 PO4 and K2 HPO4, containing 1.3 mM of MgCl2) was employed as the buffer for the enzyme reaction. The IC50 was determined in the same manner as employed in the case of α-glucosidase.

B16 melanoma cells = experiment: Cytotoxicity, survival ratio by Trypan blue staining; format: cell-based; conditions: 5-100 μM, 24 hours
Protocol: After 24 hours, the medium was replaced with Dulbecco-modified Eagle medium containing each sample. The incubation was continued under the same conditions for additional 24 hours. Then the cells were harvested by adding EDTA, washed with PBS and stained with 0.3% Trypan blue solution to thereby determine the survival ratio of the cells.

OC[C@@]12OC(Nc3ccccc3)=N[C@@H]1[C@H](O)[C@@H](O)[C@@H]2O [Compound 1-2L, (1S,5R,6S,7R,8S)-1-hydroxymethyl-3-phenylamino-2-oxa-4-azabicyclo[3.3.0]oct-3-ene-6,7,8-triol]
IC50 ([1]; pH 5.0, 37° C., 45 minutes): > 300 µM
inhibitory activity against β-glucosidase (in words) ([1]; summary of Table 1): weak inhibitory activities
IC50 [2]: > 300 µM
IC50 [3]: > 0.0003 M
cytotoxicity (in words) (B16 melanoma cells): no cytotoxicity
